The data set is described as follows: Penetration study, Bronaugh flow-through diffusion cell system (permeability coefficient Kp). As to conditions: 0.5 percent ketoprofen in the presence of vitamin E.

For the compound `CC(C(=O)O)c1cccc(C(=O)c2ccccc2)c1` (stereo not shown) [ketoprofen], the penetration rate entry is recorded as “greater than that of 1.0 percent ketoprofen without vitamin E”.

Source of the values: patent publication US6017520A, “Penetration enhancement of topically applied therapeutic formulations” (Block Drug Company, Inc., priority 1997, dated 2000).
